From patent publication US8012961B2, “Tricyclic antibiotics” (Actelion Pharmaceutical Ltd., priority 2008, dated 2011)
Values after ≈ are worked out from the molar mass of the structure shown.

These compounds were tested on M. catarrhalis A894 (assay: MIC determination by microdilution in cation-adjusted Mueller-Hinton Broth (NCCLS)). Conditions: Moraxella catarrhalis, A894, microdilution method, pH of the test medium 7.2-7.3.
Format: cell-based
Method: These assays have been performed following the description given in “Methods for dilution Antimicrobial Susceptibility Tests for Bacteria that Grow Aerobically, 4th ed.; Approved standard: NCCLS Document M7-A4; National Committee for Clinical Laboratory Standards: Villanova, Pa., USA, 1997”. Minimal inhibitory concentrations (MICs; mg/l) were determined in cation-adjusted Mueller-Hinton Broth by a microdilution method following NCCLS guidelines (National Committee for Clinical Laboratory Standards. Methods for Dilution Antimicrobial Susceptibility). The pH of the test medium was 7.2-7.3. All Example compounds were tested against several Gram positive and Gram negative bacteria such as S. aureus, E. faecalis, S. pneumoniae, M. catarrhalis or E.coli.
In the case of `COc1ccc2ccc3c(c2n1)C(CN1CCC(NCc2ccc4c(n2)NC(=O)CO4)CC1)CO3` (racemic) [Example 5, rac-6-{[1-(2-methoxy-8,9-dihydro-furo[2,3-h]quinolin-9-ylmethyl) -piperidin-4-ylamino]-methyl}-4H-pyrido[3,2-b][1,4]oxazin-3-one], the MIC is reported as at most 0.031 µg/mL.
`COc1ccc2ncc3c(c2n1)C(CN1CC[C@@H](CNCc2ccc4c(n2)NC(=O)CS4)C1)CO3` (mixture of isomers) [Example 14, 6-({[(3S)-1-((1RS)-8-methoxy-1,2-dihydro-3-oxa-5,9-diaza-cyclopenta[a]naphthalen-1-ylmethyl)-pyrrolidin-3-ylmethyl]-amino}-methyl)-4H-pyrido[3,2-b][1,4]thiazin-3-one] showed an MIC of at most 0.031 µg/mL.
`COc1ccc2ncc3c(c2n1)C(CN1CCC[C@@H](CNCc2ccc4c(n2)NC(=O)CS4)C1)CO3` (mixture of isomers) [Example 28, 6-({[(3S)-1-((1RS)-8-methoxy-1,2-dihydro-3-oxa-5,9-diaza-cyclopenta[a]naphthalen-1-ylmethyl)-piperidin-3-ylmethyl]-amino}-methyl)-4H-pyrido[3,2-b][1,4]thiazin-3-one] was tested, and the MIC was at most 0.031 µg/mL.
Work on `COc1ccc2ncc3c(c2n1)C(CN1CCO[C@@H](CNCc2ccc4c(n2)NC(=O)CS4)C1)CO3` (mixture of isomers) [Example 25, 6-({[(2S)-4-((1RS)-8-methoxy-1,2-dihydro-3-oxa-5,9-diaza-cyclopenta[a]naphthalen-1-ylmethyl)-morpholin-2-ylmethyl]-amino}-methyl)-4H-pyrido[3,2-b][1,4]thiazin-3-one] yielded an MIC of at most 0.031 µg/mL.
Compound `COc1ccc2ccc3c(c2n1)C(CN1CCC(NCc2ccc4c(n2)OCCO4)CC1)CO3` (racemic) [Example 11, rac-(2,3-dihydro-[1,4]dioxino[2,3-b]pyridin-6-ylmethyl)-[1-(2-methoxy-8,9-dihydro-furo[2,3-h]quinolin-9-ylmethyl)-piperidin-4-yl]-amine] has an MIC of 0.125 µg/mL (≈ 0.27 µM).
In the case of `COc1ccc2ncc3c(c2n1)C(CN1CC[C@@H](NCc2ccc4c(n2)NC(=O)CS4)[C@@H](F)C1)CO3` (relative stereo) [Example 17, 6-{[(3S*,4R*)-3-fluoro-1-((1RS)-8-methoxy-1,2-dihydro-3-oxa-5,9-diaza-cyclopenta[a]naphthalen-1-ylmethyl)-piperidin-4-ylamino]-methyl}-4H-pyrido[3,2-b][1,4]thiazin-3-one], the MIC is reported as at most 0.031 µg/mL.
`COc1ccc2ccc3c(c2n1)C(CN1CCC(NCc2cc4c(cn2)OCCO4)CC1)CO3` (racemic) [Example 2, rac-(2,3-dihydro-[1,4]dioxino[2,3-c]pyridin-7-ylmethyl)-[1-(2-methoxy-8,9-dihydro-furo[2,3-h]quinolin-9-ylmethyl)-piperidin-4-yl]-amine] was tested, and the MIC was at most 0.031 µg/mL.
With `COc1ccc2ccc3c(c2n1)C(CN1CCC(NC/C=C/c2cc(F)ccc2F)CC1)CO3` (racemic) [Example 1, rac-[(E)-3-(2,5-difluoro-phenyl)-allyl]-[1-(2-methoxy-8,9-dihydro-furo[2,3-h]quinolin-9-ylmethyl)-piperidin-4-yl]-amine] the MIC was at most 0.031 µg/mL.
For `O=C1COc2ccc(CNC3CCN(CC4COc5cnc6ccc(F)cc6c54)CC3)nc2N1` (racemic) [Example 35, rac-6-{[1-(8-fluoro-1,2-dihydro-furo[2,3-c]quinolin-1-ylmethyl)-piperidin-4-ylamino]-methyl}-4H-pyrido[3,2-b][1,4]oxazin-3-one], the MIC was at most 0.031 µg/mL.
`COc1ccc2ncc3c(c2n1)C(CN1CCC(NCc2ccc4c(n2)NC(=O)CO4)CC1)CO3` (racemic) [Example 6, rac-6-{[1-(8-methoxy-1,2-dihydro-3-oxa-5,9-diaza-cyclopenta[a]naphthalen-1-ylmethyl)-piperidin-4-ylamino]-methyl}-4H-pyrido[3,2-b][1,4]oxazin-3-one] was tested, and the MIC was at most 0.031 µg/mL.
Work on `COc1ccc2ncc3c(c2n1)C(CN1CC[C@@H](NCc2ccc4c(n2)NC(=O)CO4)[C@@H](F)C1)CO3` (relative stereo) [Example 18, 6-{[(3S*,4R*)-3-fluoro-1-((1RS)-8-methoxy-1,2-dihydro-3-oxa-5,9-diaza-cyclopenta[a]naphthalen-1-ylmethyl)-piperidin-4-ylamino]-methyl}-4H-pyrido[3,2-b][1,4]oxazin-3-one] yielded an MIC of at most 0.031 µg/mL.
Compound `COc1ccc2ncc3c(c2n1)C(CN1CCC[C@@H](CNCc2cc4c(nn2)OCCO4)C1)CO3` (mixture of isomers) [Example 39, (6,7-dihydro-[1,4]dioxino[2,3-c]pyridazin-3-ylmethyl)-[(3S)-1-((1RS)-8-methoxy-1,2-dihydro-3-oxa-5,9-diaza-cyclopenta[a]naphthalen-1-ylmethyl)-piperidin-3-ylmethyl]-amine] has an MIC of at most 0.031 µg/mL.

Same assay, conditions: microdilution method, pH of the test medium 7.2-7.3
`COc1ccc2ncc3c(c2n1)C(CN1CC2C(C1)C2NCc1ccc2c(n1)NC(=O)CS2)CO3` (racemic) [Example 34, 6-{[(1α,5α,6α)-3-((1RS)-8-methoxy-1,2-dihydro-3-oxa-5,9-diaza-cyclopenta[a]naphthalen-1-ylmethyl)-3-aza-bicyclo[3.1.0]hex-6-ylamino]-methyl}-4H-pyrido[3,2-b][1,4]thiazin-3-one] was tested, and the “MIC M. catarrhalis A894” value was “≦0.031 mg/l”.
For `COc1ccc2ncc3c(c2n1)C(CN1CCO[C@@H](CNCc2ccc4c(n2)NC(=O)CO4)C1)CO3` (mixture of isomers) [Example 24, 6-({[(2S)-4-((1RS)-8-methoxy-1,2-dihydro-3-oxa-5,9-diaz-cyclopenta[a]naphthalen-1-ylmethyl)-morpholin-2-ylmethyl]-amino}-methyl) -4H-pyrido[3,2-b][1,4]oxazin-3-one], the “MIC M. catarrhalis A894” value was “≦0.031 mg/l”.
`COc1ccc2ncc3c(c2n1)C(CN1CCC[C@@H](CNC/C=C/c2cc(F)ccc2F)C1)CO3` (mixture of isomers) [Example 30] was tested, and the “MIC M. catarrhalis A894” value was “≦0.031 mg/l”.
